PMC10882719 (Frontiers in Neuroscience, 2024)
Where two headings read alike, the source gives them in different places.

How the values were obtained:
Type in all cases: cell-based
168 GPCRs [1] = target: T1, 168 GPCRs (Homo sapiens, UniProt O43613)
T1 construct: host or cells: PathHunter cell lines
T1 sequence (O43613 1-425): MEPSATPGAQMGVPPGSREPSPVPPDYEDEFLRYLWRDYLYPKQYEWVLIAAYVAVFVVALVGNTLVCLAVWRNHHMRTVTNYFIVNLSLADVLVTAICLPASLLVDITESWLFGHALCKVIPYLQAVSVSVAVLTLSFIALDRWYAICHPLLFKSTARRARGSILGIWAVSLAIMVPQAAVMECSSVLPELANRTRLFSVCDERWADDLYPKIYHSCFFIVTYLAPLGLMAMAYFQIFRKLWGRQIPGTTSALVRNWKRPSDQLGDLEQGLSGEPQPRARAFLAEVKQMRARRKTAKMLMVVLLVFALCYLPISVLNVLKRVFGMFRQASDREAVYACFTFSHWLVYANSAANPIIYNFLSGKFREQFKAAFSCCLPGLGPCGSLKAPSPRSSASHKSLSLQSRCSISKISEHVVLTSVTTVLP

168 GPCRs [2] = target: T2, 168 GPCRs (Homo sapiens, UniProt O43614)
T2 construct: host or cells: PathHunter cell lines
T2 sequence (O43614 1-444): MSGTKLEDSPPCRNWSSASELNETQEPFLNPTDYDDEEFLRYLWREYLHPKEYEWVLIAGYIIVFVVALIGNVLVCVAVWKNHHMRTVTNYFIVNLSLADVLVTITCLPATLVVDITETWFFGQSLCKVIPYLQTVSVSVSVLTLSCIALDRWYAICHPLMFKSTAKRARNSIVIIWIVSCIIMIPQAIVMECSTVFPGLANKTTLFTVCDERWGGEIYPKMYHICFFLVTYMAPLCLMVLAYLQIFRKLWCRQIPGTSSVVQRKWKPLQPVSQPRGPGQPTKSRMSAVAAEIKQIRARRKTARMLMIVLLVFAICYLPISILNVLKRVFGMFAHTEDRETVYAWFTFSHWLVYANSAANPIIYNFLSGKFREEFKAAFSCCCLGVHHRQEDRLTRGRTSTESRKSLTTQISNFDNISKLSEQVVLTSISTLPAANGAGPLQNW

168 GPCRs [3] = target: T3, 168 GPCRs (Homo sapiens, UniProt P11229)
T3 construct: host or cells: PathHunter cell lines
T3 sequence (P11229 1-460): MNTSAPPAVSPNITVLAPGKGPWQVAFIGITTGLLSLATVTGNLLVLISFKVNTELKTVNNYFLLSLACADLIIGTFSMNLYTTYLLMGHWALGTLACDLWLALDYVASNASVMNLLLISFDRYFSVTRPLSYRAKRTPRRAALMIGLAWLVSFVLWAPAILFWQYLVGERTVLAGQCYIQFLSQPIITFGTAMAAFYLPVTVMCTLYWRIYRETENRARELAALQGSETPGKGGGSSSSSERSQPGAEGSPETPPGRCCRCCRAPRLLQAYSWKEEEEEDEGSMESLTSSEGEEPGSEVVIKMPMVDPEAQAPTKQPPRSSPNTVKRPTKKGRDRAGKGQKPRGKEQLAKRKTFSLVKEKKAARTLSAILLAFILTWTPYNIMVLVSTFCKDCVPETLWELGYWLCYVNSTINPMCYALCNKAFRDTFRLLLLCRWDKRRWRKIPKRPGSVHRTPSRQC

168 GPCRs [4] = target: T4, 168 GPCRs (Homo sapiens, UniProt P25106)
T4 construct: host or cells: PathHunter cell lines
T4 sequence (P25106 whole entry): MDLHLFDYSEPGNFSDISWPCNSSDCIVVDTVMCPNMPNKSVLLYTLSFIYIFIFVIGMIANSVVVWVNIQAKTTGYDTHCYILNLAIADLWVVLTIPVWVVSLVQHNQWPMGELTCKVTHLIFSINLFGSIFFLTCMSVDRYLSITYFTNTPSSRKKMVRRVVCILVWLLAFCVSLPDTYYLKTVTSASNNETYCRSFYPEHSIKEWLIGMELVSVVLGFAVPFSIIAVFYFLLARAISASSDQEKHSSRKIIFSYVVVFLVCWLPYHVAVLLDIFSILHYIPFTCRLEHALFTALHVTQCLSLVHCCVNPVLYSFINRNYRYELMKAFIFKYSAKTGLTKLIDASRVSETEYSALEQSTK

168 GPCRs [5] = target: T5, 168 GPCRs (Homo sapiens, UniProt P49682)
T5 construct: host or cells: PathHunter cell lines
T5 sequence (P49682 1-368): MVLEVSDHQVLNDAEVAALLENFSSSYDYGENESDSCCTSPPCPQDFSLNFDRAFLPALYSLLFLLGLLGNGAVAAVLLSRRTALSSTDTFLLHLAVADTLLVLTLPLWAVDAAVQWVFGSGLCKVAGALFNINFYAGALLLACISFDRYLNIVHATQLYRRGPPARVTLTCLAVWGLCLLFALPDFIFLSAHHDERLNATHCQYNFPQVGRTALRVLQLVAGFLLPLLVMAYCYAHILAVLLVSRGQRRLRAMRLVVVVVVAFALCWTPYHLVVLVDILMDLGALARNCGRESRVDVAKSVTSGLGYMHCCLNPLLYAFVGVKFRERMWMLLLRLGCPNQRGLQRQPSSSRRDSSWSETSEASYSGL

Compound	% Agonist Activity (168 GPCRs [1]; HCRTR1, 1 uM) [%]	% Antagonist Activity (168 GPCRs [1]; HCRTR1, 1 uM) [%]	% Agonist Activity (168 GPCRs [1]; HCRTR1, 10 uM) [%]	% Antagonist Activity (168 GPCRs [1]; HCRTR1, 10 uM) [%]	% Agonist Activity (168 GPCRs [2]; HCRTR2, 1 uM) [%]	% Antagonist Activity (168 GPCRs [2]; HCRTR2, 1 uM) [%]	% Agonist Activity (168 GPCRs [2]; HCRTR2, 10 uM) [%]	% Antagonist Activity (168 GPCRs [2]; HCRTR2, 10 uM) [%]	% Agonist Activity (168 GPCRs [3]; CHRM1, 1 uM) [%]	% Antagonist Activity (168 GPCRs [3]; CHRM1, 1 uM) [%]	% Agonist Activity (168 GPCRs [3]; CHRM1, 10 uM) [%]	% Antagonist Activity (168 GPCRs [3]; CHRM1, 10 uM) [%]	% Agonist Activity (168 GPCRs [4]; CXCR7, 1 uM) [%]	% Antagonist Activity (168 GPCRs [4]; CXCR7, 1 uM) [%]	% Agonist Activity (168 GPCRs [4]; CXCR7, 10 uM) [%]	% Antagonist Activity (168 GPCRs [4]; CXCR7, 10 uM) [%]	% Agonist Activity (168 GPCRs [5]; CXCR3, 1 uM) [%]	% Antagonist Activity (168 GPCRs [5]; CXCR3, 1 uM) [%]	% Agonist Activity (168 GPCRs [5]; CXCR3, 10 uM) [%]	% Antagonist Activity (168 GPCRs [5]; CXCR3, 10 uM) [%]
CNC(C)C(=O)c1ccc2c(c1)OCO2 (stereo not shown) [methylone]	-0.1	2.3	-0.1	1.2	0.2	6.4	0.2	2.4	-9.1	15.8	-8.5	2	-1.3	14.1	-0.8	7.3	-0.2	4.5	1.6	-3.9
CNC(C)Cc1ccc2c(c1)OCO2 (stereo not shown) [MDMA, 3,4-Methylenedioxy methamphetamine, reference compound]	-0.2	8.6	-0.1	15	-0.3	5.9	-0.1	-3.5	0.2	12.1	0.7	0.1	-1.3	5.3	0.5	8	-3.7	11.3	-4.7	17.9
